Assay results: paper PMC10098062 (Molecular Plant Pathology, 2023)

Target: T1, SstF (SFN-sensing transcription factor, LysR family) (Xanthomonas campestris, UniProt Q8PAP2)
T1 sequence (Q8PAP2 1-344): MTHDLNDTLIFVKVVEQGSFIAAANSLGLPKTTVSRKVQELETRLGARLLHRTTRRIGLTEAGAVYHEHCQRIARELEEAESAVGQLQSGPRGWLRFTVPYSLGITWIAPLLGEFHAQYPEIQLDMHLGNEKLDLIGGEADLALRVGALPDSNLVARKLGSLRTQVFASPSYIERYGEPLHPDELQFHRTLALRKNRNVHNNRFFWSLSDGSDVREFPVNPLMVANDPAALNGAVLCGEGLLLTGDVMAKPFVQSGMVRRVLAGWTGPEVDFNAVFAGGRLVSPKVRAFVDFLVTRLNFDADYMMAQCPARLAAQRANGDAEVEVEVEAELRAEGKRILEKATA
Experiment: SPR
Type: binding

C[S+]([O-])CCCCN=C=S (stereo not shown) [SFN, Sulforaphane]
Kd: 0.0173 µM
